Data: patent publication US20080286147A1, “Apparatus and Method for Decontamination” (GOVERNMENT OF THE U.S.A. OF AMERICA AS REPRESENTED, priority 2004, published 2008)
Several values for one entry are separate records, joined by “and”; a condition that tells them apart may be missing. Equal entries are not always repeated.

What was measured:
Assay type in all cases: cell-based
[1] = test system: B. subtilis var. niger spores; experiment: Decontamination of a BSC containing spore test strips using 4000 ppm ClO2 for 60 min; details: 75% relative humidity
Description: (§1) Test strips described in Example 1 were placed inside a BSC (FIG. 8) in various positions. Referring to FIGS. 2, 3 and 8, the opening in the front of the BSC 500 was sealed using a polyethylene sheet 502 or plastic sheeting and duct tape. An opening 504 was made in the plastic or polyethylene 502 to permit influx of air and other agents through the sealed BSC 500. Gas was evacuated from the sealed BSC using the port 506 on the top of the sealed BSC through fluid flow path 36.
After sealing the BSC, the sealed area was humidified to 75% relative humidity as described in Example 1. Briefly, water was added to a humidifier/scrubber 22, and a blower 24 attached to the humidifier/scrubber 22 to allow air to pass by the water to generate humidified air. A hose 30 coming from the humidifier/scrubber which emitted humidified air was introduced into an opening 504 in the sealed BSC 500. A hose 36 coming out of the BSC was attached to the blower 22, thereby providing a closed-loop which circulated humidified air from the humidifier/scrubber 22 into the sealed BSC 500, out of the sealed BSC 500 and back to the humidifier/scrubber 22, and so on.
During the humidification, chlorine dioxide gas was introduced into the BSC as described in Example 1. The BSC was exposed to 4000 ppm chlorine dioxide gas for one hour. […]

[2] = test system: B. subtilis var. niger spores; experiment: Decontamination of a BSC containing spore test strips using 2500 ppm ClO2 for 60 min; details: 70-80% relative humidity
Description: as §1
After sealing the BSC, the sealed area was humidified to 70-80% relative humidity as described in Examples 1 and 2. During the humidification, chlorine dioxide gas was introduced into the BSC as described in Example 1. The BSC was exposed to 2500 ppm chlorine dioxide gas for one hour. The BSC circulates 15 s/5 min.
Once the hour was up, the chlorine dioxide gas was neutralized as described above. The test strips were cultured as described in Example 1.

[3] = test system: B. subtilis var. niger spores; experiment: Decontamination of a mock BSC containing spore test strips with chlorine dioxide gas; strips cultured in tryptic soy broth
Description: Test strips contaminated with 2.4×10^4 B. subtilis var. niger spores (Castle Biospore Biological Indicators, Castle, Inc., Rochester, N.Y.) were placed inside a mock BSC (FIG. 7) in various positions. The mock BSC was generated such that it was sealed from the outside environment, and included two openings to permit influx and efflux of air and other agents through the mock BSC.
After sealing the mock BSC, the sealed mock BSC was humidified to 74-95% relative humidity using the following methods. Referring to FIGS. 2, 3 and 7, water was added to a humidifier/scrubber 22, and a blower 24 attached to the humidifier/scrubber 22 to allow air to pass by the water to generate humidified air. A hose 30 coming from the humidifier/scrubber which emitted humidified air was introduced into one of the openings 402 in the mock BSC 400. A hose 36 coming out of the mock BSC was attached to the blower 22, thereby providing a closed-loop which circulated humidified air from the humidifier/scrubber 22 into the mock BSC 400, out of the mock BSC 400 and back to the humidifier/scrubber 22, and so on. A hygrometer 404 in the mock BSC was used to monitor the relative humidity in the mock BSC.
During the humidification, chlorine dioxide gas was introduced into the mock BSC as follows. A tank 12 containing a 4% chlorine/96% nitrogen gas mixture was turned on to permit the flow of gas to a CDG Saf-T-Chlor™ chlorine dioxide gas generator 14. This generator includes a sodium chlorite cartridge in fluid communication with the 4% Cl/96% N2 gas mixture. The resulting chlorine dioxide gas was allowed to flow into the hose 30 exiting the humidifier/scrubber (containing the humidified air), and was allowed to enter the mock BSC along with the humidified air. A chlorine dioxide monitor in the mock BSC allowed for a determination of the amount of chloride dioxide in the mock BSC. In some instances, the air circulation was increased by including a fan 406 in the mock BSC.
Following exposure to chlorine dioxide, the tank 12 containing a 4% Cl/96% N2 gas mixture was turned off, to stop the flow and production of chlorine dioxide gas. To neutralize the chlorine dioxide gas, the following methods were used. A neutralizing solution that included 10% NaOH and 10% sodium thiosulfate hydrate (in water) was introduced into the humidifier/scrubber 22. Air from the mock BSC containing chlorine dioxide gas was circulated through the closed system described above, such that when the air containing chloride dioxide gas passed through the humidifier/scrubber 22, it was at least partially neutralized. […]

[O][Cl+][O-] [ClO2, Chlorine dioxide]
Kill (number of test strips negative for spore growth) ([1]; 4000 ppm ClO2 for 60 min, Runs A-E (76.0-86.0 °F)): 24/24 and 23/24
spore kill on test strips (in words) ([1]; 4000 ppm chlorine dioxide gas for one hour): all spores were killed except on one test strip
Kill (number of test strips negative for spore growth) ([2]; 2500 ppm ClO2 for 60 min, Runs A-D (70-74 °F)): 24/24 and 23/23
spore kill on test strips (in words) ([2]; 2500 ppm chlorine dioxide gas for one hour): all spores were killed
Kill (number of test strips negative for spore growth) ([3]; Run A: 1500 ppm ClO2, exposure 90 min, relative humidity 95%, 69 °F, strips with 2.4×10^4 spores): 16/16
Kill (number of test strips negative for spore growth) ([3]; Run B: 1500 ppm ClO2, exposure 90 min, relative humidity 85%, 69 °F): 16/16
Kill (number of test strips negative for spore growth) ([3]; Run C: 2200 ppm ClO2, exposure 60 min, relative humidity 74%, 69 °F): 17/17
Kill (number of test strips negative for spore growth) ([3]; Run D: 2000 ppm ClO2, exposure 60 min, relative humidity 75%, 68 °F): 17/17
